Laboratory results reported in ChEMBL document CHEMBL4699582, “Discovery of OATD-01, a First-in-Class Chitinase Inhibitor as Potential New Therapeutics for Idiopathic Pulmonary Fibrosis” (J Med Chem, 2020).
Activity calls are given as the source filed them. No cut-off for these calls is given here.

Assays:
[1] = Initial plasma concentration in Balb/c mouse at 3 mg/kg, iv administered as single bolus dose by LC-MS/MS analysis; type: ADME, organism-based
[2] = target: Multidrug resistance-associated protein 1 (Homo sapiens, UniProt P33527); assay: Inhibition of MRP1 (unknown origin) at 1 to 10 uM; conditions: dose 1-10 µM
[3] = Drug uptake in C57BL/6N mouse lung at 30 mg/kg, po qd administered via gavage measured 24 hrs post dose; type: ADME, organism-based; conditions: in vivo
[4] = AUC (0 to 24 hrs) in Beagle dog at 10 mg/kg, po administered as single dose by LC-MS/MS analysis; type: ADME, organism-based, Canis lupus familiaris; design: time < 24 hr, route oral, dose 10 mg/kg; conditions: in vivo
Cytochrome P450 2B6 = Cytochrome P450 2B6 (Homo sapiens, UniProt P20813); assay: Inhibition of CYP2B6 (unknown origin); type: ADME
[5] = Volume of distribution at steady state in Beagle dog at 3 mg/kg, iv administered as single bolus dose measured upto 24 hrs by LC-MS/MS analysis; type: ADME, organism-based, Canis lupus familiaris; conditions: in vivo, read-out: Vdss
[6] = Dose normalized Cmax in Beagle dog at 3 mg/kg, iv administered as single bolus dose by LC-MS/MS analysis; type: ADME, organism-based, Canis lupus familiaris; conditions: in vivo
[7] = target: Broad substrate specificity ATP-binding cassette transporter ABCG2 (Homo sapiens, UniProt Q9UNQ0); assay: Inhibition of BCRP (unknown origin) at 1 to 10 uM; conditions: dose 1-10 µM
[8] = AUC (0 to 24 hrs) in Balb/c mouse at 10 mg/kg, po administered as single dose by LC-MS/MS analysis; type: ADME, organism-based; design: time < 24 hr, route oral, dose 10 mg/kg; conditions: in vivo
[9] = Initial plasma concentration in Sprague-Dawley rat at 2 mg/kg, iv administered as single bolus dose by LC-MS/MS analysis; type: ADME, organism-based
[10] = Dose normalized AUC (0 to 24 hrs) in Balb/c mouse at 10 mg/kg, po administered as single dose by LC-MS/MS analysis; type: ADME, organism-based; conditions: in vivo
[11] = Volume of distribution at steady state in Sprague-Dawley rat at 2 mg/kg, iv administered as single bolus dose measured upto 24 hrs by LC-MS/MS analysis; type: ADME, organism-based; conditions: in vivo, read-out: Vdss
[12] = AUC (0 to 24 hrs) in Balb/c mouse at 3 mg/kg, iv administered as single bolus dose by LC-MS/MS analysis; type: ADME, organism-based; design: time < 24 hr, route intravenous, dose 3 mg/kg; conditions: in vivo
[13] = Elimination half-life in Balb/c mouse at 3 mg/kg, iv administered as single bolus dose by LC-MS/MS analysis; type: ADME, organism-based; conditions: in vivo, read-out: beta t1/2 (converted)
[14] = Dose normalized AUC (0 to 24 hrs) in Sprague-Dawley rat at 6 mg/kg, po administered as single dose by LC-MS/MS analysis; type: ADME, organism-based; conditions: in vivo
Cytochrome P450 2C8 = Cytochrome P450 2C8 (Homo sapiens, UniProt P10632); assay: Inhibition of CYP2C8 (unknown origin); type: ADME
[15] = Dose normalized AUC (0 to 24 hrs) in Balb/c mouse at 3 mg/kg, iv administered as single bolus dose by LC-MS/MS analysis; type: ADME, organism-based; conditions: in vivo
[16] = Dose normalized Cmax in Beagle dog at 10 mg/kg, po administered as single dose by LC-MS/MS analysis; type: ADME, organism-based, Canis lupus familiaris; conditions: in vivo
[17] = Dose normalized Cmax in Balb/c mouse at 10 mg/kg, po administered as single dose by LC-MS/MS analysis; type: ADME, organism-based; conditions: in vivo
Chitotriosidase-1 = Chitotriosidase-1 (Mus musculus, UniProt Q9D7Q1); assay: biochemical
Description: Inhibition of recombinant full-length C-terminal his-tagged mouse CHIT1 expressed in CHO-K1 cells assessed as reduction in chitinolytic activity using 4-methylumbelliferyl-beta-D-N,N',N"-triacetylchitotrioside as substrate after 60 mins by fluorometric assay

[18] = Tmax in Balb/c mouse at 10 mg/kg, po administered as single dose by LC-MS/MS analysis; type: ADME, organism-based; conditions: in vivo
[19] = Oral bioavailability in Balb/c mouse at 10 mg/kg, administered as single dose by LC-MS/MS analysis; type: ADME, organism-based; conditions: in vivo
[20] = AUC (0 to 24 hrs) in Sprague-Dawley rat at 2 mg/kg, iv administered as single bolus dose by LC-MS/MS analysis; type: ADME, organism-based; design: time < 24 hr, route intravenous, dose 2 mg/kg; conditions: in vivo
Cytochrome P450 2C19 = Cytochrome P450 2C19 (Homo sapiens, UniProt P33261); assay: Inhibition of CYP2C19 (unknown origin); type: ADME
Cytochrome P450 2C9 = Cytochrome P450 2C9 (Homo sapiens, UniProt P11712); assay: Inhibition of CYP2C9 (unknown origin); type: ADME
[21] = target: Solute carrier family 22 member 2 (Homo sapiens, UniProt O15244); assay: Inhibition of OCT2 (unknown origin) at 1 to 10 uM
[22] = Dose normalized Cmax in Sprague-Dawley rat at 6 mg/kg, po administered as single dose by LC-MS/MS analysis; type: ADME, organism-based; conditions: in vivo
[23] = target: Ileal sodium/bile acid cotransporter (Homo sapiens, UniProt Q12908); assay: Inhibition of ASBT (unknown origin) at 1 to 10 uM; conditions: dose 1-10 µM
[24] = target: Solute carrier organic anion transporter family member 1B3 (Homo sapiens, UniProt Q9NPD5); assay: Inhibition of OATP1B3 (unknown origin) at 1 to 10 uM; conditions: dose 1-10 µM
[25] = Tmax in Beagle dog at 10 mg/kg, po administered as single dose by LC-MS/MS analysis; type: ADME, organism-based, Canis lupus familiaris; conditions: in vivo
Cytochrome P450 3A4 = Cytochrome P450 3A4 (Homo sapiens, UniProt P08684); assay: Inhibition of CYP3A4 (unknown origin); type: ADME
[26] = Oral bioavailability in Beagle dog at 10 mg/kg, administered as single dose by LC-MS/MS analysis; type: ADME, organism-based, Canis lupus familiaris; conditions: in vivo
[27] = Volume of distribution at steady state in Balb/c mouse at 3 mg/kg, iv administered as single bolus dose measured upto 24 hrs by LC-MS/MS analysis; type: ADME, organism-based; conditions: in vivo, read-out: Vdss
[28] = target: Solute carrier family 22 member 6 (Homo sapiens, UniProt Q4U2R8); assay: Inhibition of OAT1 (unknown origin) at 1 to 10 uM; conditions: dose 1-10 µM
[29] = Dose normalized AUC (0 to 24 hrs) in Beagle dog at 10 mg/kg, po administered as single dose by LC-MS/MS analysis; type: ADME, organism-based, Canis lupus familiaris; conditions: in vivo
[30] = target: Acidic mammalian chitinase (Mus musculus, UniProt Q91XA9); assay: Inhibition of full-length C-terminal his-tagged mouse AMCase expressed in expressed in CHO-K1 cells assessed as reduction in chitinolytic activity using 4-methylumbelliferyl-beta-D-N,N'-diacetylchitobioside hydrate as substrate after 60 mins by fluorometric assay; type: cell-based
[31] = In-vivo inhibition of CHIT1 in C57BL/6N mouse assessed as decrease in chitinolytic activity in plasma at 30 mg/kg, po qd administered via gavage measured up to 12 hrs relative to control; type: functional; conditions: time hrs <=12
[32] = AUC (0 to 24 hrs) in Beagle dog at 3 mg/kg, iv administered as single bolus dose by LC-MS/MS analysis; type: ADME, organism-based, Canis lupus familiaris; design: time < 24 hr, route intravenous, dose 3 mg/kg; conditions: in vivo
[33] = target: Voltage-gated inwardly rectifying potassium channel KCNH2 (Homo sapiens, UniProt Q12809); assay: Inhibition of tracer red binding to human ERG expressed in HEK293 cell membranes measured after 2 to 6 hrs by fluorescence polarization assay
Mus musculus = species on record: Mus musculus; conditions: C57BL/6N, dose 30.0 mg/kg
[34] = Elimination half-life in Balb/c mouse at 10 mg/kg, po administered as single dose by LC-MS/MS analysis; type: ADME, organism-based; conditions: in vivo, read-out: beta t1/2 (converted)

Chitotriosidase-1, sequence (Q9D7Q1 whole entry): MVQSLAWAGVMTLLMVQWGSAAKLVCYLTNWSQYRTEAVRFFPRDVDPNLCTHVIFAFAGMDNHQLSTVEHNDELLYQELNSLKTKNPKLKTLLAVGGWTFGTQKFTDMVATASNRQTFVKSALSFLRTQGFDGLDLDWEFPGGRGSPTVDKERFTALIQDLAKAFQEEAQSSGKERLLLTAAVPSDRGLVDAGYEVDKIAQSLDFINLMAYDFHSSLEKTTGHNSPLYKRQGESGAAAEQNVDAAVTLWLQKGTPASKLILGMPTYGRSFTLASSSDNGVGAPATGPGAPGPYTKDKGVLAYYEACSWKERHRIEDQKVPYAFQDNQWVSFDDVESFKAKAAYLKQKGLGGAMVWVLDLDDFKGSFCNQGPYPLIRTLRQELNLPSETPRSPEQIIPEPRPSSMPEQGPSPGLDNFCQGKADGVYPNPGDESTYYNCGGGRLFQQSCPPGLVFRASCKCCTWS
Acidic mammalian chitinase, sequence (Q91XA9 whole entry): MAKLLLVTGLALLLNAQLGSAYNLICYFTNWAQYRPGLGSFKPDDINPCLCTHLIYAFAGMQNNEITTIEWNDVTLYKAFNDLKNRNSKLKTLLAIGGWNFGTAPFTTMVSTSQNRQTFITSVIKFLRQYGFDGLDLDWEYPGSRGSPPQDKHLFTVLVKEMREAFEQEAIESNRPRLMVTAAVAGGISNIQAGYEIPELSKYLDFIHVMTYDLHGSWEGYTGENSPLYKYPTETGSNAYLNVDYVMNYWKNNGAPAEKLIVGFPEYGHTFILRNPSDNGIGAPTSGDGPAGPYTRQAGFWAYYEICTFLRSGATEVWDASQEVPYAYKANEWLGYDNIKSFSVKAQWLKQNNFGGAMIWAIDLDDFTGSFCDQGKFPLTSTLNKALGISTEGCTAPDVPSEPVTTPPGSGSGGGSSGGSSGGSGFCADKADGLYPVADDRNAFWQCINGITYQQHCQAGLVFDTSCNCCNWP
Cytochrome P450 2B6, sequence (P20813 whole entry): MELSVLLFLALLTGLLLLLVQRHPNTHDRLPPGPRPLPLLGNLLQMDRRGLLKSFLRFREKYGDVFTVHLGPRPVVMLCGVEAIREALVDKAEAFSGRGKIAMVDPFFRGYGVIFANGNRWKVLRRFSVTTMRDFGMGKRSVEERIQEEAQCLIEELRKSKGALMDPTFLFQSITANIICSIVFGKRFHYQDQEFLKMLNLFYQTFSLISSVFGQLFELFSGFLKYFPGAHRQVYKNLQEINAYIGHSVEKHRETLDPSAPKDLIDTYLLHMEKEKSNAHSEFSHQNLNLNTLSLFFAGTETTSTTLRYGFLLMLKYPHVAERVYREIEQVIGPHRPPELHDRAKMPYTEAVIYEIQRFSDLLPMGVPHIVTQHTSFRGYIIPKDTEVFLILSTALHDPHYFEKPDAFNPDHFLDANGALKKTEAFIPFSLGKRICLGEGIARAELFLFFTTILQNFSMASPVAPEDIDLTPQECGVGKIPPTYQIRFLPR
Solute carrier family 22 member 2, sequence (O15244 whole entry): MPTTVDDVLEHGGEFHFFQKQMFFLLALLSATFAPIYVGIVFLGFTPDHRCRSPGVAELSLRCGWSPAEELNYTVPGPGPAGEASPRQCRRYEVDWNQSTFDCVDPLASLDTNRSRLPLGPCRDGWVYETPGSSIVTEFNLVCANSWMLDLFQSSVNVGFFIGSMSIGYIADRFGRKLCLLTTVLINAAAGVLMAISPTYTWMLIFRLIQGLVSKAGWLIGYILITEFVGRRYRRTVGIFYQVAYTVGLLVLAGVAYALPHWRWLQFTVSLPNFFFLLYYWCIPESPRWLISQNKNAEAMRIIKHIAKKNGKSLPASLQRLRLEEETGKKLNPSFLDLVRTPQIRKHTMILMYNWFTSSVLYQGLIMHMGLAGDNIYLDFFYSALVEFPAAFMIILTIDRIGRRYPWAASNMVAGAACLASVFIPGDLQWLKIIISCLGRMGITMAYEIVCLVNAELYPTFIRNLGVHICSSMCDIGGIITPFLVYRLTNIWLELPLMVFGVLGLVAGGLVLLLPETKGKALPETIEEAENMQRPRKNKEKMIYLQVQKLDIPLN
Broad substrate specificity ATP-binding cassette transporter ABCG2, sequence (Q9UNQ0 whole entry): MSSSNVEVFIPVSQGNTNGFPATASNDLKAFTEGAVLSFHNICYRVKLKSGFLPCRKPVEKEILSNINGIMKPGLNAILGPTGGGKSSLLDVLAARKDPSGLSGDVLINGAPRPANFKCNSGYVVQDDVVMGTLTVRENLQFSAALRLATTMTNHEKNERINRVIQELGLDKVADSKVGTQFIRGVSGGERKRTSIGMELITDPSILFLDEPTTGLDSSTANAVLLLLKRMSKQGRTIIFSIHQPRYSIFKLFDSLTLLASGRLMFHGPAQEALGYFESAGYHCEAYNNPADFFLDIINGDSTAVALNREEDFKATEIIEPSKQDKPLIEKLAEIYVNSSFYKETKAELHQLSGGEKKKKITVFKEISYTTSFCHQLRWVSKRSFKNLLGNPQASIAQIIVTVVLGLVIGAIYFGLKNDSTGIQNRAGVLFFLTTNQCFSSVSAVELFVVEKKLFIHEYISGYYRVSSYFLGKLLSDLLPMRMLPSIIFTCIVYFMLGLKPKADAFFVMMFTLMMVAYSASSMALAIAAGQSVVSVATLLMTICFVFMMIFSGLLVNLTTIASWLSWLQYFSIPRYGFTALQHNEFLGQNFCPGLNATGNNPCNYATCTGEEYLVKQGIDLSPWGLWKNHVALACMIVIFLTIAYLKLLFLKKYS
Multidrug resistance-associated protein 1, sequence (P33527 whole entry): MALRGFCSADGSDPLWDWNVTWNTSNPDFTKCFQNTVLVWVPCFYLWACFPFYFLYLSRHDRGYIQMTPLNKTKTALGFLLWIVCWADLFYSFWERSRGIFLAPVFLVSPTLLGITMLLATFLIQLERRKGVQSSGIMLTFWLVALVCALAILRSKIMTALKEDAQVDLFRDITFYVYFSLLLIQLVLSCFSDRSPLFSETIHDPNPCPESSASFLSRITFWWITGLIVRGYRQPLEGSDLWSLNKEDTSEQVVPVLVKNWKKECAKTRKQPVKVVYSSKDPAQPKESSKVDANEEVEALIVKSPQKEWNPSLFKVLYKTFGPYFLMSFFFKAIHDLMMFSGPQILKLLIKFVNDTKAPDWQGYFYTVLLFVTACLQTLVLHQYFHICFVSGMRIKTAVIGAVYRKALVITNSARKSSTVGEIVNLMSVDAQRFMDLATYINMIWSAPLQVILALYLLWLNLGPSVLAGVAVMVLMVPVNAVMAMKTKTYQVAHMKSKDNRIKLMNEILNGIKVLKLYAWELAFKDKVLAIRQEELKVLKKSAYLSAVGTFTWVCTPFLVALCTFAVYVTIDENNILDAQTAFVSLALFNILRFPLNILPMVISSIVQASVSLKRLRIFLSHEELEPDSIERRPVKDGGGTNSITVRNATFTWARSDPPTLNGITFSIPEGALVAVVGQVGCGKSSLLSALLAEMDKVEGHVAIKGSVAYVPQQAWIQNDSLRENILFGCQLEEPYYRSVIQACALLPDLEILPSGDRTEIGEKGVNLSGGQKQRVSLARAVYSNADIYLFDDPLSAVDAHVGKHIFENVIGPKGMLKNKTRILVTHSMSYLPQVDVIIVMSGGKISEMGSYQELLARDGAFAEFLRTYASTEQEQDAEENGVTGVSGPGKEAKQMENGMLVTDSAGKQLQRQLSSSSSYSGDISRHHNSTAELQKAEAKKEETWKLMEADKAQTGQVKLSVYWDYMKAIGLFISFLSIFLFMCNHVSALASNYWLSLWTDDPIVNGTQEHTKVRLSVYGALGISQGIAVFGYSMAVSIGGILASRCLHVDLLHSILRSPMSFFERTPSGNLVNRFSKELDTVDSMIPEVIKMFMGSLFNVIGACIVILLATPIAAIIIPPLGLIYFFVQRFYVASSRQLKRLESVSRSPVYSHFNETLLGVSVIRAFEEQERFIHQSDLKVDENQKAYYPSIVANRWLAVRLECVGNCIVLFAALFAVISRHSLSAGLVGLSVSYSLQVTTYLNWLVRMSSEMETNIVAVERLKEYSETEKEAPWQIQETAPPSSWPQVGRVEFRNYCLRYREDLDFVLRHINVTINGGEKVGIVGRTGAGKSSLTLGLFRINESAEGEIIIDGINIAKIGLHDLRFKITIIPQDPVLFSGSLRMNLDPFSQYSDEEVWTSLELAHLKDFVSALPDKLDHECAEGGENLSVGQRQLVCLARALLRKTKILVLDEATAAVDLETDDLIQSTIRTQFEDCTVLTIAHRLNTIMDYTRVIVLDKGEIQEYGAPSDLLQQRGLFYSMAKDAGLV
Cytochrome P450 3A4, sequence (P08684 whole entry): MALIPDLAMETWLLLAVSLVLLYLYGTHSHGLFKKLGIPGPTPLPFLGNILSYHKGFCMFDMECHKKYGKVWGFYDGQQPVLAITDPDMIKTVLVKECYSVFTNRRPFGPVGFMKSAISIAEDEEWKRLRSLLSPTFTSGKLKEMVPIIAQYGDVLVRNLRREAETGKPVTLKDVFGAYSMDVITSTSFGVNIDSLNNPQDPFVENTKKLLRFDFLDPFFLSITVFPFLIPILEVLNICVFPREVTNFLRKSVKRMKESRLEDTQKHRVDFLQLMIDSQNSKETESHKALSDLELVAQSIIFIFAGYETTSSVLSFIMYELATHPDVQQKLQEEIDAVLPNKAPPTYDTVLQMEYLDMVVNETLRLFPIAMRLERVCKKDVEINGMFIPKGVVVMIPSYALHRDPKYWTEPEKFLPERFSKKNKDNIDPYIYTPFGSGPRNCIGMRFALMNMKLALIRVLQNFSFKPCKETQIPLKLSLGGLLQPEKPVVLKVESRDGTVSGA
Ileal sodium/bile acid cotransporter, sequence (Q12908 whole entry): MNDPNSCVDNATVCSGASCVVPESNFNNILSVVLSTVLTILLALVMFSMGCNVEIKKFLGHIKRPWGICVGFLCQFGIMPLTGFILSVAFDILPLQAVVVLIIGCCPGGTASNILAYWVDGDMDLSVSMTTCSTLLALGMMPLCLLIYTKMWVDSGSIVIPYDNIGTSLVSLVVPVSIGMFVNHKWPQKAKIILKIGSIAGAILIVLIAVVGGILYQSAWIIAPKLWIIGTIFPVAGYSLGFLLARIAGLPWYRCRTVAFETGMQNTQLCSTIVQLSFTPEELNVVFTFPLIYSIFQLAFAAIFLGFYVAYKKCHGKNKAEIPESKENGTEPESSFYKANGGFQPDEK

C[C@H]1CN(C2CCN(c3nc(N)n[nH]3)CC2)[C@@H](Cc2ccc(Cl)cc2)CO1 [5-(4-((2S,5S)-5-(4-CHLOROBENZYL)-2-METHYLMORPHOLINO)PIPERIDIN-1-YL)-1H-1,2,4-TRIAZOL-3-AMINE]
C0 [1]: 3970 ng/mL
inhibition (INH) [2]: Not Active
Drug uptake [3]: Active
AUC(0-t) at 24 h [4]: 94100 ng·h/mL
inhibition (INH) (Cytochrome P450 2B6): Not Active
Vd [5]: 0.96 L/kg
Cmax/dose [6]: 0.82 kg.mg/L.mL
inhibition (INH) [7]: Not Active
AUC(0-t) at 24 h [8]: 22200 ng·h/mL
C0 [9]: 1000 ng/mL
AUC/dose [10]: 2.22 kg·mg·h/L/mg
Vd [11]: 1.82 L/kg
AUC(0-t) at 24 h [12]: 8600 ng·h/mL
half-life [13]: 2.09 h
AUC/dose [14]: 3.38 kg·mg·h/L/mg
inhibition (INH) (Cytochrome P450 2C8): Not Active
AUC/dose [15]: 2.87 kg·mg·h/L/mg
Cmax/dose [16]: 0.76 kg.mg/L.mL
Cmax/dose [17]: 0.34 kg.mg/L.mL
IC50 (Chitotriosidase-1): 28 nM
Ki (Chitotriosidase-1): 26 nM
Tmax [18]: 2 h
bioavailability [19]: 77.4%
AUC(0-t) at 24 h [20]: 5560 ng·h/mL
inhibition (INH) (Cytochrome P450 2C19): Not Active
inhibition (INH) (Cytochrome P450 2C9): Not Active
inhibition (INH) [21]: Not Active
Cmax/dose [22]: 0.37 kg.mg/L.mL
inhibition (INH) [23]: Not Active
inhibition (INH) [24]: Not Active
Tmax [25]: 0.5 h
inhibition (INH) (Cytochrome P450 3A4): Not Active
bioavailability [26]: 91.4%
Vd [27]: 1.01 L/kg
inhibition (INH) [28]: Not Active
AUC/dose [29]: 9.41 kg·mg·h/L/mg
IC50 [30]: 7.8 nM
Ki [30]: 5.7 nM
inhibition in vivo at 30 mg/kg [31]: 70%
AUC(0-t) at 24 h [32]: 31000 ng·h/mL
IC50 [33]: 23000 nM
inhibition (Mus musculus): Active
half-life [34]: 1.88 h
